Assay results reported in PMC9827882, “Templated Generation of a Bcl‐xL Inhibitor by Isomer‐Free SPAAC Based on Azacyclonon‐5‐yne” (Chemistry (Weinheim an Der Bergstrasse, Germany), 2022).

What was measured:
Bcl‐xL [1] = target: T1, Bcl‐xL (Homo sapiens, UniProt Q07817, DEL45-84); assay: Competitive fluorescence polarization (FP) binding assay: Bcl‐xL and fluorescein‐labeled Bak BH3‐derived peptide; settings: for IC50: Bcl‐xL 37 nM, Bak BH3 peptide 4 nM, triplicate, read-out: IC50 against Bcl‐xL in FP assay
T1 construct: The protein Bcl‐xL (amino acids 1‐209, Δ45–84, kindly provided by Prof. Ho Sup Yoon); gift of Prof; Ho Sup Yoon, Nanyang Technological University, Singapore
Method: The abilities of triazoles 11 a/c to interfere with binding between Bcl‐xL and a fluorescein‐labeled peptide derived from the pro‐apoptotic Bcl‐2 protein Bak was analyzed in a competitive binding assay based on fluorescence polarization (FP).[9, 20]
Fluorescence polarization assays: Assays were performed essentially as described previously.[20, 30] The protein Bcl‐xL (amino acids 1‐209, Δ45–84, kindly provided by Prof. Ho Sup Yoon, Nanyang Technological University, Singapore)[31] was incubated with the test compounds for 1 h at room temperature at a protein concentration of 37 nM. Subsequently, fluorophore‐labeled Bak BH3‐derived peptide (5‐carboxyfluorescein‐[…]‐NH2 was added (final peptide concentration: 4 nM), and the fluorescence polarization was measured after another 60 min in a plate reader (Tecan Infinite F500). All experiments were carried out in triplicate. Buffer composition: 10 mM Tris pH 8.0, 50 mM NaCl, 1 mM EDTA, 0.1 % Nonidet P‐40 substitute, 1 mM DTT, and 2 % DMSO.

Bcl‐xL [2] = target: T1, Bcl‐xL; assay: Kinetic analysis by HPLC of the reaction between 12 d and 13 to generate 11 d in aqueous buffer, templated by Bcl‐xL; settings: for second‐order rate constant k of formation of 11 d from 12 d and 13: 12 d and 13 both 50 μM; for second‐order rate constant k of formation of 11 d from 12 d and 13 / rate acceleration over the reaction of 1 and benzyl azide in acetonitrile at room temperature: aqueous buffer, 37 °C
Method: While the reactivities of cycloalkynes are typically characterized by their second‐order rate constants in the reaction with benzylazide in CD3CN, or sometimes CD3OD, the relevant reactivity of a cycloalkyne for use in iSPAAC is the reactivity between the functionalized cycloalkyne and the functionalized azide in aqueous media at the physiological temperature of 37 °C. We therefore analyzed the kinetics of the reaction between the functionalized cycloalkyne 12 d and the azide 13 in aqueous buffer by reversed‐phase (RP)‐HPLC. Incubation of 12 d and 13 (both at 50 μM) at 37 °C generated the triazole 11 d with a second‐order rate constant of 2.1±0.2×10^−3 M^−1 s^−1 (Figures 7 and S6). This represents a 450‐fold rate acceleration over the reaction of 1 and benzyl azide in acetonitrile at room temperature (k=4.7±0.1×10^−6 M^−1 s^−1). In the presence of an additional, equimolar amount of Bcl‐xL, this rate was further increased by a factor of 6 (k=1.33±0.06×10^−2 M^−1 s^−1), representing a 2800‐fold higher rate constant than observed in the standard reaction between 1 and benzyl azide in acetonitrile at room temperature. […] Of particular relevance in this context are the templated synthesis of sulfonamide‐based Bcl‐xL inhibitors using sulfonyl azides and thioacids,[23] and protein‐templated formation of 1,2,3‐triazoles from azides and terminal alkynes in the absence of Cu^I.[24]
Kinetic analysis by HPLC: 12 d (50 μM) and 13 (50 μM) were incubated at 37 °C in the absence of Bcl‐xL, in the presence of Bcl‐xL (50 μM), and in the presence of both Bcl‐xL (50 μM) and ABT‐737 (50 μM). At the given time points, aliquots of 60 μL were diluted with 60 μL of 0.1 % TFA in 4.5 % acetonitrile/H2O and analyzed by RP‐HPLC (100 μL injection volume). The formation of 11 d was quantified by peak area using a standard curve. 1/(50×10^−6−[11 d]) [M^−1] was plotted against time. Linear regression gave the second‐order rate constant k as the slope. Experiments were carried out in triplicate. Buffer composition: 10 mM Tris pH 8.0, 50 mM NaCl, 1 mM EDTA, 0.1 % Nonidet P‐40 substitute, and 4 % DMSO.

[3] = design: method as in PMID 18451170; settings: cited from earlier work
[4] = design: method as in PMID 18451170; settings: cited from earlier work; remark: listed apart in the source

T1 sequence (Q07817 with tags, fused parts or gaps DEL45-84): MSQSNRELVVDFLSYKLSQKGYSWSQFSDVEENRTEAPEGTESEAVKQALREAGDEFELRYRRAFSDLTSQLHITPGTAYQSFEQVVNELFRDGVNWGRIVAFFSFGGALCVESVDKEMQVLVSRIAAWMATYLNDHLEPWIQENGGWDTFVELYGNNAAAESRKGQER

In the case of CN(C)CC[C@H](CSc1ccccc1)Nc1ccc(S(=O)(=O)NC(=O)Cn2nnc3c2CCCN(C(=O)c2ccccc2-c2ccc(Cl)cc2)CCC3)cc1[N+](=O)[O-] [11 a], the IC50 (Bcl‐xL [1]) is reported as 18 ± 0.7 µM.
Compound CN(C)CC[C@H](CSc1ccccc1)Nc1ccc(S(=O)(=O)NC(=O)Cn2nnc3c2CCCN(C(=O)OCc2ccccc2-c2ccc(Cl)cc2)CCC3)cc1[N+](=O)[O-] [11 c] has an IC50 (Bcl‐xL [1]) of 11.4 ± 0.9 µM.
In the case of CN(C)CC[C@H](CSc1ccccc1)Nc1ccc(S(=O)(=O)NC(=O)Cn2nnc3c2CCCN(C(=O)OCC2=C(c4ccc(Cl)cc4)CCNC2)CCC3)cc1[N+](=O)[O-] [11 d], the IC50 (Bcl‐xL [1]) is reported as 2.42 ± 0.02 µM, the “almost 5-fold higher inhibitory potency of 11 d than 11 c” value (Bcl‐xL [1]; ratio of IC50 values, 11 d vs 11 c) is reported as ~5 fold and the “second‐order rate constant k of formation of 11 d from 12 d and 13” value (Bcl‐xL [2]; equimolar Bcl‐xL (50 μM)) is reported as 1.33±0.06×10^−2 M^−1 s^−1. For the same compound, the “rate acceleration over the reaction of 1 and benzyl azide in acetonitrile at room temperature” value (Bcl‐xL [2]; no Bcl‐xL) was 450 fold, the “second‐order rate constant k of formation of 11 d from 12 d and 13” value (Bcl‐xL [2]; no Bcl‐xL, RP‐HPLC) was 2.1±0.2×10^−3 M^−1 s^−1 and the “rate increase by Bcl‐xL (template effect)” value (Bcl‐xL [2]; with equimolar Bcl‐xL vs without Bcl‐xL) was 6 factor. The “rate acceleration over the reaction of 1 and benzyl azide in acetonitrile at room temperature” value (Bcl‐xL [2]; with equimolar Bcl‐xL) was 2800 fold.
For O=C(c1ccccc1-c1ccc(Cl)cc1)N1CCCC#CCCC1 [12 a], the “activity against Bcl‐xL in FP assay (in words)” value (“activity against Bcl‐xL” below) (Bcl‐xL [1]; 100 μM, FP assay) was “inactive” and the “activity against Bcl‐xL” value (Bcl‐xL [1]; 100 μM, FP assay, listed as 12a) was “no inhibition”.
For O=C(OCc1ccccc1-c1ccc(Cl)cc1)N1CCCC#CCCC1 [12 c], the “activity against Bcl‐xL” value (Bcl‐xL [1]; 100 μM, FP assay) was “inactive” and the “activity against Bcl‐xL” value (Bcl‐xL [1]; 100 μM, FP assay, listed as 12c) was “no inhibition”.
With O=C(OCC1=C(c2ccc(Cl)cc2)CCNC1)N1CCCC#CCCC1 [12 d] the “activity against Bcl‐xL” value (Bcl‐xL [1]; 100 μM, FP assay) was “inactive” and the “activity against Bcl‐xL” value (Bcl‐xL [1]; 100 μM, FP assay, listed as 12d) was “no inhibition”.
In the case of CN(C)CC[C@H](CSc1ccccc1)Nc1ccc(S(=O)(=O)NC(=O)c2ccc(N3CCN(Cc4ccccc4-c4ccc(Cl)cc4)CC3)cc2)cc1[N+](=O)[O-] [ABT‐737], the oral bioavailability [3] is given as “poor” and the “cell permeability in tissue culture” value [4] is given as “cell‐permeable”.
Compound CN(C)CC[C@H](CSc1ccccc1)Nc1ccc(S(=O)(=O)NC(=O)CN=[N+]=[N-])cc1[N+](=O)[O-] [compound 13] has an inhibition at 100 µM (Bcl‐xL [1]; 100 μM, FP assay) of 48 ± 3%.
